Data reported in patent US7504117B2, “Extract of Nelumbinis Semen for the treatment of depression” (Purimed Co., Ltd., priority 2003, dated 2009).

Key:
Type in all cases: in vivo
[1] = system: CREB, BDNF and trkB proteins; assay: Western blotting of CREB, BDNF and trkB proteins in rat cerebral frontal cortex
Method: Thirdly, an increase in the antidepressive markers, CREB, BDNF and trkB proteins, was examined in the rat cerebral frontal cortex by Western blotting, as follows. A behavioral test in rats was carried out for a period of three weeks, and the rats were administered with each drug. The brain frontal cortex was excised and centrifuged, and the supernatant was recovered. Each sample was mixed with a SDS-PAGE sample buffer to reduce proteins and boiled to denature proteins. Samples were loaded onto a SDS-PAGE (sodium dodecyl sulfate poly acrylamide gel electrophoresis) gel and run at 100-200 V for about 1-2 hrs. The SDS-PAGE gel was transferred onto a PVDF or nitrocellulose membrane by electro-transferation. The membrane was incubated with a primary antibody for a target protein, washed and incubated with a secondary antibody. Then, the target protein was detected by an enhanced chemiluminescent method.

lymphocytes = assay: Lymphocyte cell number in rat blood (automatic analyzer)
Text: Fourthly, changes in cell number of lymphocytes, which is a representative marker to determine whether the immune suppression has been overcome, according to administration of the Nelumbinis Semen extract, was examined as follows. After blood samples were collected from rats, changes in lymphocyte cell number were examined by the following method.
When diluted blood corpuscles are suspended in an electrolyte solution (Isoton sol.) that is a separate […], the electrolyte suspension of particles is suctioned for 4 sec through an aperture with a predetermined size. The aperture is placed between an internal electrode and an external electrode, and a current flows between the electrodes. When particles pass through the aperture between the two electrodes, resistance increases while voltage decreases. The difference between decreased voltage and ground voltage is expressed as height by a threshold circuit. The number of pulses indicates the number of particles, and the amplitude of pulses is in proportion to the volume of corpulscles.
2. Assay Method: Automatic Analyzer
3. Machine Used: ADVIA120, Bayer, USA

[2] = system: CREB, BDNF and trkB genes; assay: Oligonucleotide microarray gene expression in cerebral frontal cortex; conditions: depression-induced animal
Text: Total RNA was isolated from the cerebral frontal cortex, and double-stranded cDNA was synthesized using the isolated RNA and an oligo (dT) 24-T7 primer. cRNA was synthesized by in vitro transcription using the synthesized cDNA, and was biotin-labeled and applied to an oligonucleotide microarray to determine gene expression patterns in each test group.

cortisol = assay: Urinary cortisol concentration (125I-cortisol assay) in rats; conditions: rat urine
Method: First, changes in concentrations of cortisol, which is a representative marker to determine whether the immune suppression has been overcome, according to administration of the Nelumbinis Semen extract were examined, as follows. After urine samples were collected from rats,
(1) 1.0 ml of urine was placed into a tube with a cap, 2.0 ml dichloromethane was added to the tube, and the tube was covered with the cap with caution;
(2) the mixture was vortexed for 5-10 min;
(3) the mixture was centrifuged at 1500×g (rpm), the upper layer was aspirated, and 50 μl of the lower layer were aliquotted into coated tubes;
(4) samples were evaporated for dryness.
Urinary cortisol concentrations were measured as follows.
(1) The coated tubes were individually labeled with NSB, Std (A-F), a control (CON6 No. 5) and sample numbers (for NSB, a green tube was used).
(2) 25 μl of each of NSB, Std(A-F), a control (CON6 No. 5) and samples was added to the corresponding tube (free cortisol was added to the completely dried coated tube, and 25 μl of Std. A was added to the NSB tube).
(3) 1.0 ml of ^125I-cortisol was added to the tubes, followed by mixing.
(4) The tubes were incubated in a water bath at 37° C. for 45 min and aspirated.
(5) After the content of the tubes was completely aspirated, radioactivity was measured for at least 1 min using a […].

[3] = system: 5-HT and NE neurotransmitters; assay: 5-HT and NE levels in chronic CMS model by microdialysis and HPLC-ECD
Method: Also, according to a biochemical method, the therapeutic efficacy of a candidate drug was primarily examined by measuring changes in 5-HT and Norepinephrine (NE) levels in a chronic CMS model by microdialysis and HPLC-ECD. Catecholamine content was measured using an HPLC system equipped with an electrochemical detector. A mobile phase containing 0.05 M monobasic sodium phosphate, 0.1 N sodium acetic acetate and 1% methanol was adjusted to pH 4.4 with a phosphate buffer for HPLC. […] was composed of a Supelcosil LC-8-DB 3-μm column (150×4.6 mm, Supelco, Bellefonte, Pa.) protected by an LC-18 guard column.

IL-2 = assay: Blood IL-2 concentration (luminometric immunoassay) in rats; conditions: rat blood
Method: (1) 100 μl of assay diluent QD6-23 were aliquotted onto a microplate strip;
(2) 50 μl of each sample and a standard were aliquotted onto the strip;
(3) the strip was incubated with shaking at room temperature for 2 hrs;
(4) the strip was washed four times;
(5) 200 μl of an IL-2 conjugate was aliquotted onto the strip, and the strip was incubated with shaking at room temperature for 3 hrs;
(6) 200 μl of a substrate (luminol+hydrogen peroxide) was aliquotted onto the strip, and the strip was incubated at room temperature for 20-40 min;
(7) emitted light was measured using a luminometer; and
(8) IL-2 concentrations were determined using a standard quantitative curve.

WBC = WBC counting in rat blood (volume, conductivity, light scattering)
Method: Thirdly, changes in WBC cell number, which is a representative marker to determine whether the immune suppression has been overcome, according to administration of the Nelumbinis Semen extract, was examined, as follows. After blood samples were collected from rats, cell volume, conductivity and light scattering were measured.
Cell volume was measured according to the Coulter Principle, which is universally recognized as a reference method for sizing of volumes. An aperture between two electrodes is placed in a cell flow, and direct current flows between the electrodes. When WBC maintained at nearly natural states passes through the aperture, electrical resistance to the direct current flow increases, thus generating a voltage pulse being in proportion to cell volumes. The size of the pulse is one of the distinct features allowing determination of the type of WBC. However, to distinguish between two types of cells with similar size, a different phenotype allowing the distinction of two types of cells should be measured. For example, mature basophils and small lymphocytes are about 9-12 jjm in diameter, and immature prolymphocytes and mature neutrophils are 12-14 μm in diameter. Different types of cells with similar size are difficult to determine based on only their size, and thus, in this case, conductivity and light scattering are simultaneously measured. […]

[4] = system: CREB, BDNF and trkB proteins; assay: 2-DE of CREB, BDNF and trkB proteins in rat cerebral frontal cortex
Method: Fourthly, an increase in the antidepressive markers, CREB, BDNF and trkB proteins, was examined in the rat cerebral frontal cortex by 2-DE, as follows. A behavioral test in rats was carried out for a period of three weeks, and the rats were administered with each drug. The brain frontal cortex was excised and centrifuged, and the supernatant was recovered. Each sample was mixed with an IEF sample buffer and loaded onto an IEF gel. Proteins were separated according to isoelectric point by isoelectric focusing (IEF) in the first dimension and according to molecular weight by SDS-PAGE at 100-200 V for about 1-2 hrs in the second dimension. The gel was stained by a Gel-Code Blue staining method and evaluated for elevated or newly emerged proteins by the antidepressive substances. The elevated or newly emerged proteins by the antidepressive substances were subjected to mass spectrometry.

CNCCC(Oc1ccc(C(F)(F)F)cc1)c1ccccc1 (stereo not drawn) [Prozac, fluoxetine]
significantly increase: protein level of BDNF [1] | protein level of CREB [1] | protein level of trkB [1] | expression level of BDNF gene [2] | expression level of CREB gene [2] | expression level of trkB gene [2] | level of 5-HT [3] | level of NE [3] | protein level of BDNF [4] | protein level of CREB [4] | protein level of trkB [4]
levels similar to a normal group: cell number of lymphocytes (lymphocytes) | cortisol concentrations (cortisol) | IL-2 concentrations (IL-2) | cell number of WBC (WBC)
